Publication PMC3115714 (Bioorganic & medicinal chemistry, 2011)

Legend:
[1] = target: μ-opioid receptor (hMOR-CHO) (Homo sapiens, UniProt P35372); assay: biochemical; assay type: biochemical
[2] = target: κ-opioid receptor (CHO hKOR) (Homo sapiens, UniProt P41145); assay type: binding
[3] = target: κ-opioid receptor (hKOR-CHO) (Homo sapiens, UniProt P41145); assay: biochemical; assay type: biochemical
[4] = target: δ-opioid receptor (CHO hDOR) (Homo sapiens, UniProt P41143); assay: Opioid receptor binding assay, [3H]DADLE displacement in hDOR-CHO cell membranes; settings: selectivity μ over δ, from Ki
[5] = target: μ-opioid receptor (CHO hMOR) (Homo sapiens, UniProt P35372); assay type: binding
Sequence of μ-opioid receptor (CHO hMOR) (P35372 whole entry): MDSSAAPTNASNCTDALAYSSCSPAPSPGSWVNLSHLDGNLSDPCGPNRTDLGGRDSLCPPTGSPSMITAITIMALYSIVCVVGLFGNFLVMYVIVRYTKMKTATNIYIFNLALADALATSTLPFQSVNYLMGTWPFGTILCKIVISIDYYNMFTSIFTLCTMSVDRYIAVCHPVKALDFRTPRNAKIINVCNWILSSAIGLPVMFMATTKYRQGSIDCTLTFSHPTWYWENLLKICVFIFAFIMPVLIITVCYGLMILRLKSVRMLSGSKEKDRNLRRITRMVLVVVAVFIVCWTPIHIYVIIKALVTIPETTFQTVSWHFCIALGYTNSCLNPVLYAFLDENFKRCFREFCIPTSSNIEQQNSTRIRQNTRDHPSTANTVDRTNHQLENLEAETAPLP

Sequence of μ-opioid receptor (hMOR-CHO) (P35372 whole entry): as above
Sequence of κ-opioid receptor (hKOR-CHO) (P41145 whole entry): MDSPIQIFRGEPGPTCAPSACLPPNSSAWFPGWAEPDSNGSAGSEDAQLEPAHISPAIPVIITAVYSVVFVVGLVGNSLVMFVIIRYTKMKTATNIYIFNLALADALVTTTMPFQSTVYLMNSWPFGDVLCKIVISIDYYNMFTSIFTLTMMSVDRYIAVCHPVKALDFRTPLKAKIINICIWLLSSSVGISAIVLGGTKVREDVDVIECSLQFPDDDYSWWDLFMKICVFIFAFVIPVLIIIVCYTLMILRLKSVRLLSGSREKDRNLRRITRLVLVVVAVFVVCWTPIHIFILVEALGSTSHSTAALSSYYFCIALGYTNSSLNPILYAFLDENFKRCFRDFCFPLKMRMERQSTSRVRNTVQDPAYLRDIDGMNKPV
Sequence of κ-opioid receptor (CHO hKOR) (P41145 whole entry): as above
Sequence of δ-opioid receptor (CHO hDOR) (P41143 whole entry): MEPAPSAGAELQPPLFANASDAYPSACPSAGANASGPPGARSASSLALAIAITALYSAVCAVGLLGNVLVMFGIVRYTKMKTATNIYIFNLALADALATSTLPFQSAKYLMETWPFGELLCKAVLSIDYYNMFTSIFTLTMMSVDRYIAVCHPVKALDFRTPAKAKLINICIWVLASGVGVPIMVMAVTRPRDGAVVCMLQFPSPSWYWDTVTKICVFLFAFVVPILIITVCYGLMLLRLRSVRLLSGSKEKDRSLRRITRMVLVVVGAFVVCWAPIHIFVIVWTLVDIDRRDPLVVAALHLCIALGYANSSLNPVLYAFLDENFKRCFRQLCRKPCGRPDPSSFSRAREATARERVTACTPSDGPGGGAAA

Structure (SMILES): Oc1cccc2c1O[C@@H]1CN(CCc3ccccc3)[C@@H]3CCC[C@]21C3 (relative stereo) [Cmpd 12, (3R*,6aS*,11aS*)-2-Phenethyl-2,3,4,5,6,11a-hexahydro-1H -3,6a-methanobenzofuro[2,3-c]azocin-10-ol]
- Kb [1]: 0.71 ± 0.09 nM
- potency as μ-opioid antagonist relative to naloxone [1]: more than three times as potent as naloxone
- fold less affinity for κ-receptors than for the μ-receptor [2]: about 50 fold
- Kb [3]: 1.79 ± 0.51 nM
- κ-opioid antagonist potency relative to norBNI [3]: one tenth the potency of norBNI
- fold less affinity for δ-receptors than for the μ-receptor [4]: about 1200 fold
- μ affinity relative to morphine [5]: two to three times the affinity of morphine
